Measured values published in the supplement of paper PMC8920030.

How the values were obtained:
Settings in all cases: growth mode: biofilm, 24 h; exposure time: 24 h
colistin [1] = compound: T1, CCC(C)CCCC(=O)N[C@@H](CCN)C(=O)N[C@H](C(=O)N[C@@H](CCN)C(=O)N[C@H]1CCNC(=O)[C@H]([C@@H](C)O)NC(=O)[C@H](CCN)NC(=O)[C@H](CCN)NC(=O)[C@H](CC(C)C)NC(=O)[C@@H](CC(C)C)NC(=O)[C@H](CCN)NC1=O)[C@@H](C)O [colistin]; assay: minimum concentration of killing, 4-log CFU reduction of biofilm (MCK99.99); higher = more biofilm tolerance
Procedure: (§1)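 Clinical P. aeruginosa isolates were grown as static biofilms for 24 h at 37 °C in LB in half-area 96-well plates, then exposed for 24 h to colistin at 1, 4, 16, 64, 256 or […]. Surviving CFU were counted by spotting serial dilutions. MCK is the lowest tested concentration giving the stated log reduction in CFU versus an untreated control; '>1024' means the reduction was not reached at the top dose, and 1 is the lowest dose tested (≤1).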

tobramycin [2] = compound: T2, NC[C@H]1O[C@H](O[C@H]2[C@H](O)[C@@H](O[C@H]3O[C@H](CO)[C@@H](O)[C@H](N)[C@H]3O)[C@H](N)C[C@@H]2N)[C@H](N)C[C@@H]1O [tobramycin]; assay: as above
Procedure: as §1, with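 “tobramycin” for “colistin”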

colistin [3] = compound: T1, colistin; assay: minimum concentration eradicating biofilm below detection limit (MCK-E); higher = more biofilm tolerance
Procedure: as §1

tobramycin [4] = compound: T2, tobramycin; assay: minimum concentration of killing, 2-log CFU reduction of biofilm (MCK99); higher = more biofilm tolerance
Procedure: as §1, with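 “tobramycin” for “colistin”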

colistin [5] = compound: T1, colistin; assay: as above
Procedure: as §1

tobramycin [6] = compound: T2, tobramycin; assay: minimum concentration eradicating biofilm below detection limit (MCK-E); higher = more biofilm tolerance
Procedure: as §1, with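 “tobramycin” for “colistin”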

tobramycin [7] = compound: T2, tobramycin; assay: minimum concentration of killing, 1-log CFU reduction of biofilm (MCK90); higher = more biofilm tolerance
Procedure: as §1, with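 “tobramycin” for “colistin”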

colistin [8] = compound: T1, colistin; assay: as above
Procedure: as §1

| Test System | minimum concentration of killing (colistin [1]) [µg/mL] | minimum concentration of killing (tobramycin [2]) [µg/mL] | minimum concentration eradicating biofilm below detection limit (colistin [3]) [µg/mL] | minimum concentration of killing (tobramycin [4]) [µg/mL] | minimum concentration of killing (colistin [5]) [µg/mL] | minimum concentration eradicating biofilm below detection limit (tobramycin [6]) [µg/mL] | minimum concentration of killing (tobramycin [7]) [µg/mL] | minimum concentration of killing (colistin [8]) [µg/mL] |
| --- | --- | --- | --- | --- | --- | --- | --- | --- |
| Pseudomonas aeruginosa clinical isolate CH2582 | 256 | 64 | 1020 | 4 | 256 | 64 | ≤ 1 | ≤ 1 |
| Pseudomonas aeruginosa clinical isolate F1862 | 256 | 256 | 256 | 256 | 256 | 256 | 64 | 256 |
| Pseudomonas aeruginosa clinical isolate ESP020 | 256 | 256 | 256 | 256 | 256 | 256 | 4 | 64 |
| Pseudomonas aeruginosa clinical isolate ESP023 | 64 | 16 | 64 | 16 | 64 | 16 | ≤ 1 | 64 |
| Pseudomonas aeruginosa clinical isolate ESP037 | 64 | 64 | 64 | 4 | 64 | 256 | 4 | 64 |
| Pseudomonas aeruginosa clinical isolate ESP083 | 256 | > 1020 | 256 | > 1020 | 64 | > 1020 | > 1020 | 4 |
| Pseudomonas aeruginosa clinical isolate ESP073 | 256 | 64 | 256 | 16 | 256 | 256 | 16 | 16 |
| Pseudomonas aeruginosa clinical isolate F1720 | 256 | 1020 | 256 | 64 | 64 | > 1020 | 4 | ≤ 1 |
| Pseudomonas aeruginosa clinical isolate F1759 | 256 | 64 | 256 | 4 | 256 | 256 | ≤ 1 | 64 |
| Pseudomonas aeruginosa clinical isolate F2017 | 256 | 256 | > 1020 | 256 | 64 | > 1020 | 16 | 4 |
| Pseudomonas aeruginosa clinical isolate ESP001 | 256 | 256 | 256 | 256 | 64 | 1020 | 16 | 64 |
| Pseudomonas aeruginosa clinical isolate F1688 | 256 | 256 | 256 | 4 | 256 | 256 | 4 | 16 |
| Pseudomonas aeruginosa clinical isolate ESP004 | 256 | 1020 | 256 | 1020 | 256 | > 1020 | 256 | 64 |
| Pseudomonas aeruginosa clinical isolate F2006 | 256 | 64 | 256 | ≤ 1 | 64 | 64 | ≤ 1 | 64 |
| Pseudomonas aeruginosa clinical isolate ESP081 | 256 | 64 | 256 | 16 | 256 | 64 | 4 | 256 |
| Pseudomonas aeruginosa clinical isolate CH2597 | 256 | 256 | 256 | 256 | 256 | 256 | 256 | 256 |
| Pseudomonas aeruginosa clinical isolate CH2660 | 256 | 64 | 256 | 64 | 256 | 256 | 4 | 64 |
| Pseudomonas aeruginosa clinical isolate F1856 | 64 | 1020 | 64 | 1020 | 16 | 1020 | 256 | 4 |
